Reference: US20230084927A1, “GLUCOSE UPTAKE INHIBITORS AND USES THEREOF” (METABOMED LTD., priority 2019, published 2023)
Read-outs that look alike come from different tables or passages of the source.

What was measured:
[1] = tested on: SDH-KO-HRAS cells (SDHB-deficient); assay: Cellular / differential toxicity assay (CellTiter-Glo, 3 days); type: cell-based, murine; conditions: for EC50: Mus musculus, 72 h
Outline: (§1)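 Isogenic SDHB-deficient (HRAS-transformed SDH-KO) and SDH-WT cells grown in DMEM-F12 with 1 mM glutamine and 3% FBS, plated with compound (10-point dilution from 10 uM to 0.0065 uM or lower) for 3 days at 37 °C, 5% CO2. Viability by CellTiter-Glo luminescence; EC50 calculated.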

[2] = tested on: SDH-WT cells; assay: as above; type: cell-based, murine; conditions: Mus musculus, 72 h
Outline: as §1

[3] = PK profile (plasma and brain concentration); type: in vivo
Procedure: FIG. 14 describes the pharmacokinetics of compound 332.
FIG. 14A depicts the Mean Plasma Concentration of Compound 332 after IP7, IV bolus1 and PO2 Dosing. FIG. 14B depicts the Mean Brain Concentration of Compound 332 after IP Dosing at 2.50 mg/kg and FIG. 14C depicts the Mean Brain Concentration of Compound 332 after IV bolus Dosing at 2.50 mg/kg.

[4] = tested on: 2-DeoxyGlucose phosphorylation in murine SDH-WT cells; assay: 2 DG phosphorylation assay; type: cell-based; conditions: Mus musculus, 0.25 h, 15 min, LC-MS
Procedure: IC50 of compound 145 and GluT1 inhibitor […] in a 2 DG phosphorylation assay was done using murine SDH-WT cells. The cells were treated for 15 min with the indicated compound at different concentrations in the presence of 2 DG. 2 DG phosphorylation was determined by LC-MS analysis and the inhibition IC50 was determined by Prism software.

[5] = tested on: UOK269 (SDHB-def.) RCC; assay: Cell viability in SDH-deficient/proficient isogenic pairs; type: cell-based, Human; conditions: Homo sapiens, tumor-derived, 72 hours
Procedure: (§2) The cells were grown in DMEM F12 supplemented with 1 mM Glutamine+3% FBS were treated with different concentrations of the indicated compounds. Cell viability was determined 72 hours later by CellTiter Glue reagent (Promega), the luminescence was measured with ClarioStar reader (BMG) and the EC50s were calculated by Prism. Murine SDHB-WT/KO, HRAS transformed isogenic pair (FIG. 12A); UOK269, Human Tumor-derived SDHB-deficient RCC in their WT counterpart with re-expression of SDHB (FIG. 12B); and ACHN, RCC cells, and their SDHB-KO (SDHB CRISPRed out) isogenic cells (FIG. 12C).

[6] = tested on: UOK269-WT (re-expression of SDHB); assay: as above; type: cell-based, Human; conditions: Homo sapiens, tumor-derived, 72 hours
Procedure: as §2

[7] = tested on: ACHN SDHB −/− (SDHB CRISPRed out); assay: as above; type: cell-based; conditions: Homo sapiens, cancer cells, 72 hours
Procedure: as §2

[8] = tested on: ACHN WT, RCC cells; assay: as above; type: cell-based; conditions: Homo sapiens, cancer cells, 72 hours
Procedure: as §2

[9] = tested on: m+3 lactate secretion (glycolysis) in SDH-KO cells; assay: Glycolysis inhibition (IC50 Lactate m+3); type: cell-based; conditions: 1 h, 25 mM 13C-glucose, one hour
Procedure: (§3) Glycolysis Inhibition (IC50 Lactate m+3)
(§4) Cell were plated in DMEM, 25 mM Glucose, 1 mM Pyruvate, 1 mM Glutamine and 10% Dialyzed serum in 96 well plates in triplicates. The day after the medium was replaced to fresh medium with 25 mM ^13C-glucose and treated with different concentrations of the compounds as indicated. One hour later the medium was collected and the level of m+3 lactate was determined by LC-MS. The IC50 of inhibition of m+3 lactate secretion into the medium was calculated with Prism.

[10] = tested on: m+3 lactate secretion (glycolysis) in SDH-WT cells; assay: Glycolysis inhibition (IC50 Lactate m+3); type: cell-based; conditions: 1 h, 25 mM 13C-glucose, one hour
Procedure: as §3, §4

[11] = toxicity, SDH-KO cells, 3 days, CellTiter-Glo, read-out: EC50 (uM) SDH-KO-HTAS-C17
[12] = toxicity, SDH-WT cells, 3 days, CellTiter-Glo, read-out: EC50 (uM) SDH-WT

SMILES	EC50 [1, 11] [nM]	EC50 [2, 12] [µM]	other results
COCCOCc1c2c(nc3sc4c(NCCc5ccc6[nH]cnc6c5)ncnc4c13)CC(C)(C)OC2 [Compound 332]	< 1000	1 to 3	differential toxicity, SDH-KO cells compared to SDH-WT cells ([1]; viability EC50s, 72 hours, Example 6): 235; oral bioavailability ([3]; PO dosing vs IV bolus, plasma): low; brain penetration ([3]; brain concentration after IP and IV bolus dosing at 2.50 mg/kg): brain penetrant
Cc1c(NC(=O)c2cc(C(N)=O)nc3cc(F)ccc23)c(C(F)(F)F)nn1Cc1ccc(C#N)cc1 [BAY-876, reference compound]			EC50 ([1]; Murine SDH-KO, transformed, 72 hours, Example 8, read-out: EC50): 0.95 nM; EC50 ([2]; Murine SDH-WT, transformed, 72 hours, Example 8, read-out: EC50): 0.134 µM; IC50 [4]: 21.6 nM; EC50 [5]: 15 nM; EC50 [6]: 5.3 µM; EC50 [7]: 256 nM; EC50 [8]: 24.2 µM
COCc1c2c(nc3sc4c(NCCc5ccc6[nH]cnc6c5)ncnc4c13)CC(C)(C)OC2 [Compound 308, N-(2-(1H-Benzo[d]imidazol-5-yl)ethyl)-11-(methoxymethyl)-8,8-dimethyl-7,10-dihydro-8H-pyrano[3″,4″:5′,6′]pyrido[3′,2′:4,5]thieno[3,2-d]pyrimidin-4-amine]	< 1000	1 to 3	EC50 ([1]; SDH-KO cells, 72 hours, Example 7, read-out: EC50 Tox): 0.004 nM; differential effect between SDH-WT and KO cells (EC50 Tox) ([1]; cell viability, Example 7): > 500,000 folds; EC50 ([2]; SDH-WT cells, 72 hours, Example 7, read-out: EC50 Tox): 2.17 µM; IC50 [9]: 0.03 nM; IC50 [10]: 0.15 nM
CN1C(=O)CCC1n1cnc2ccc(CCNc3ncnc4c3sc3nc5c(cc34)COC(C)(C)C5)cc21 (stereo not shown) [Compound 304]	< 1000	3 to 10	
CC1(C)Cc2nc3sc4c(NCCc5ccc6[nH]c(-c7ccccc7)nc6c5)ncnc4c3cc2CO1 [Compound 190]	1000 to 3000	< 1	
CC(O)c1nc2cc(CCNc3ncnc4c3sc3nc5c(cc34)COC(C)(C)C5)ccc2[nH]1 (stereo not shown) [Compound 177]	1000 to 3000	3 to 10	
COc1ccc(CCNc2ncnc3c4c(sc23)=NC2CC(C)(C)OCC2C=4)c(OC)c1 (stereo not shown) [Compound 125]	1000 to 3000	> 10	
CN(CCO)c1ncnc2c1sc1nc3c(cc12)COC(C)(C)C3 [Compound 278]	> 10000	> 10	
CC(C)c1nc(NCCc2ccc3[nH]cnc3c2)c2sc3nc4c(cc3c2n1)COC(C)(C)C4 [Compound 311]	1000 to 3000	> 10	
CC1(C)Cc2nc3sc4c(NCCc5ccc6[nH]cnc6c5)ncnc4c3c(COc3ccccc3)c2CO1 [Compound 322, N-(2-(1H-Benzo[d]imidazol-5-yl)ethyl)-8,8-dimethyl-11-(phenoxymethyl)-7,10-dihydro-8H-pyrano[3″,4″:5′,6′]pyrido[3′,2′:4,5]thieno[3,2-d]pyrimidin-4-amine]	< 1000	< 1	
CC1(C)Cc2nc3sc4c(N5CCCC5)ncnc4c3cc2CO1 [Compound 298]	> 10000	> 10	
Cc1nc(NCCO)c2sc3nc4c(cc3c2n1)COC(C)(C)C4 [Compound 250]	> 10000	> 10	
CC(=O)OC(C)C(=O)Nc1ccc(CCNc2ncnc3c2sc2nc4c(cc23)COC(C)(C)C4)cc1[N+](=O)[O-] (stereo not shown) [Compound 187]	3000 to 10000	1 to 3	
CC1(C)Cc2nc3sc4c(NCCC5CCCCO5)ncnc4c3cc2CO1 (stereo not shown) [Compound 112]	3000 to 10000	> 10	
COCCOCCOCCOCCNC(=O)c1c2c(nc3sc4c(NCCc5ccc6[nH]cnc6c5)ncnc4c13)CC(C)(C)OC2 [Compound 317, 4-((2-(1H-Benzo[d]imidazol-5-yl)ethyl)amino)-8,8-dimethyl-N-(2,5,8,11-tetraoxatridecan-13-yl)-7,10-dihydro-8H-pyrano[3″,4″:5′,6′]pyrido[3′,2′:4,5]thieno[3,2-d]pyrimidine-11-carboxamide]	3000 to 10000	3 to 10	
CC(=O)OCc1nc2cc(CCNc3ncnc4c3sc3nc5c(cc34)COC(C)(C)C5)ccc2[nH]1 [Compound 176]	< 1000	3 to 10	
CC(=O)OCC(=O)Cc1ccc(CCNc2ncnc3c2sc2nc4c(cc23)COC(C)(C)C4)cc1N [Compound 183]	< 1000	3 to 10	
CC(C)c1nc2cc(CCNc3ncnc4c3sc3nc5c(cc34)COC(C)(C)C5)ccc2[nH]1 [Compound 188]	3000 to 10000	1 to 3	
CC1(C)Cc2nc3sc4c(N5CCN(CCO)CC5)ncnc4c3cc2CO1 [Compound 288]	> 10000	> 10	
CC1(C)Cc2nc3sc4c(NCCc5ccc6[nH]c(CO)nc6c5)ncnc4c3cc2CO1 [Compound 179]	< 1000	3 to 10	
CC1(C)Cc2nc3sc4c(NCCc5ccncc5)ncnc4c3cc2CO1 [Compound 127]	> 10000	> 10	
CC1(C)Cc2nc3c(c(S(C)(=O)=O)c2CO1)-c1ncnc(NCCc2ccc4[nH]cnc4c2)c1S3(=O)=O [Compound 166]	3000 to 10000	3 to 10	
CC1(C)Cc2nc3sc4c(NCCc5ccc(N)c(F)c5)ncnc4c3cc2CO1 [Compound 203]	< 1000	> 10	
COCCOCCOCCOCCNCc1c2c(nc3sc4c(NCCc5ccc6[nH]cnc6c5)ncnc4c13)CC(C)(C)OC2 [Compound 321, N-(2-(1H-Benzo[d]imidazol-5-yl)ethyl)-8,8-dimethyl-11-(5,8,11,14-tetraoxa-2-azapentadecyl)-7,10-dihydro-8H-pyrano[3″,4″:5′,6′]pyrido[3′,2′:4,5]thieno[3,2-d]pyrimidin-4-amine]	1000 to 3000	3 to 10	
